Experimental data: patent publication US20170356895A1, “TOXICANT ASSAYS FOR CONSUMABLE PRODUCTS” (priority 2016, published 2017)

Tested on: zebrafish (Danio rerio) AB strain embryos
Test: Acute toxicity testing of extracts using zebrafish embryos (mortality rate after 48 hr exposure)
Type: in vivo
Settings: 3.7 mg/L
Procedure: Extracts prepared as described in Example 1 were tested for acute toxicity using zebrafish (Danio rerio) AB strain embryos. Chicken breast extracts were diluted into zebrafish embryo culture medium at 0.25, 0.50, 1.00, 2.00 and 4.00 μl/ml. Zebrafish AB strain embryos of 4-128 cell stages were exposed to extract dilutions in a 96-well plate at 1 embryo per well. Each concentration was tested with 20 embryos. Zebrafish embryo culture medium and 3.7 mg/L dichloroaniline were included as negative and positive controls, respectively. After 48 hr exposure at 26° C., zebrafish embryos were observed under a stereomicroscope and fish embryos that were coagulated, tail not detached, and having no heart beat were marked as dead. Mortality rate for each concentration was calculated as the acute toxicity endpoint. The mortality rate for the negative control was 0% and for the positive control was 65%.
The acute toxicity of milk powder extracts prepared as described in Example 4 were tested for acute toxicity using zebrafish (Danio rerio) AB strain embryos. Milk powder extracts were diluted into zebrafish embryo culture medium at 0.33, 0.50, 0.76, 1.74 and 4.00 μl/ml. Zebrafish AB strain embryos of 4-128 cell stages were exposed to extract dilutions in a 96-well plate with 1 embryo per well. […] Mortality rate of each concentration was calculated as the acute toxicity endpoint. […]

Nc1ccc(Cl)c(Cl)c1 [3,4-dichloroaniline]
Mortality rate for positive control (48-hr exposure at 26° C., Example 5 (milk powder test)): 60% | Mortality rate for the positive control (48 hr exposure at 26° C., Example 2 (chicken breast test)): 65%
